Test results reported in publication PMC12627007, “HIV nucleocapsid proteins as targets for novel 1,2-benzisothiazol-3(2H)-one benzenesulfonamides: synthesis and antiretroviral activity” (Frontiers in Microbiology, 2025).

Key:
Assay type in all cases: cell-based
[1] = tested on: HIV-1 EFVR (K103R + V179D + P225H); experiment: Inhibition of virus-induced cytopathogenicity in MT-4 cells, NNRTI-resistant mutant EFVR; conditions: for EC50: Human immunodeficiency virus 1, MT4, read-out: EC50 EFVR; for Selectivity Index (SI = CC50/EC50) EFVR: in round brackets
Protocol: (§1) HIV-1IIIB and HIV-2 CBL-20 strains were obtained from the supernatants of persistently infected H9/IIIB and CEM cells, respectively. HIV-1 and HIV-2 stock solutions had titres of 4.5 × 10^7 and 1.4 × 10^6 50% cell culture infectious doses (CCID50)/ml, respectively. […] The K103R + V179D + P225H mutant (EFVR) was derived from an IIIB strain passaged in MT-4 cells in the presence of Efavirenz (up to 2 μM). N119, A17 and EFV^R stock solutions had titres of 1.2 × 10^8, 2.1 × 10^7, and 4.0 × 10^7 CCID50/ml, respectively.
(§2) The activity of the test compounds against the replication of HIV-1 wt and mutant strains (N119, A17, EFV^R, AZT^R, MDR, SAQ^R) and HIV-2 wt in acutely infected cells was based on the inhibition of virus-induced cytopathogenicity in MT-4 and C8166 cells, respectively. Briefly, 50 μL of culture medium containing 1 × 10^4 cells was added to each well of flat-bottom microtitre trays containing 50 μL of culture medium with or without different serial concentrations of test compounds. Then, 20 μL of an HIV suspension (containing the appropriate amount of CCID50 required to cause complete cytopathogenicity on day 4, final multiplicity of infection [m.o.i.] 0.01) was added.

[2] = tested on: HIV-1 MDR (74V, 41L, 106A, 215Y); experiment: Inhibition of virus-induced cytopathogenicity in MT-4 cells, NRTI-resistant mutant MDR; conditions: for EC50: Human immunodeficiency virus 1, MT4, read-out: EC50 MDR; for Selectivity Index (SI = CC50/EC50) MDR: in round brackets
Protocol: as §1, §2

[3] = tested on: HIV-1 AZTR (67N, 70R, 215F, 219Q); experiment: Inhibition of virus-induced cytopathogenicity in MT-4 cells, NRTI-resistant mutant AZTR; conditions: for EC50: Human immunodeficiency virus 1, MT4, read-out: EC50 AZTR; for Selectivity Index (SI = CC50/EC50) AZTR: in round brackets
Protocol: as §1, §2

[4] = Cytotoxicity in mock-infected MT-4 cells (MTT method); conditions: human
Protocol: as §2, with “added. After incubation at 37 °C, cell viability was determined using the […] (MTT) method ([Pauwels et al., 1988]). The cytotoxicity of the test compounds was evaluated in parallel with their antiviral activity through the viability of mock-infected, treated cells, as monitored by the MTT method and described elsewhere ([Morellet et al., 1994]).” for “added.”

[5] = tested on: HIV-1 SAQR (L10F, G48V, L90M); experiment: Inhibition of virus-induced cytopathogenicity in MT-4 cells, PRI-resistant mutant SAQR; conditions: for EC50: Human immunodeficiency virus 1, MT4, read-out: EC50 SAQR; for Selectivity Index (SI = CC50/EC50) SAQR: in round brackets
Protocol: as §1, §2

HIV-1 IIIB strain = experiment: microbe, parasite or virus in culture; conditions: for EC50: Human immunodeficiency virus 1, IIIB, MT4, read-out: EC50 HIV-1; for Selectivity Index (SI = CC50/EC50) HIV-1: IIIB strain, in round brackets
Protocol: as §1, §2

HIV-1 N119 (Y181C) = experiment: Inhibition of virus-induced cytopathogenicity in MT-4 cells, NNRTI-resistant mutant N119; conditions: for EC50: Human immunodeficiency virus 1, MT4, read-out: EC50 N119; for Selectivity Index (SI = CC50/EC50) N119: in round brackets
Protocol: as §1, §2

[6] = tested on: HIV-1 A17 (K103N + Y181C); experiment: Inhibition of virus-induced cytopathogenicity in MT-4 cells, NNRTI-resistant mutant A17; conditions: for EC50: Human immunodeficiency virus 1, MT4, read-out: EC50 A17; for Selectivity Index (SI = CC50/EC50) A17: in round brackets
Protocol: as §1, §2

| SMILES | EC50 [1] | Selectivity Index (SI = CC50/EC50) EFVR [1] | EC50 [2] | EC50 [3] | CC50 at 4 days [4] | EC50 [5] | EC50 (HIV-1 IIIB strain) | Selectivity Index (SI = CC50/EC50) HIV-1 (HIV-1 IIIB strain) | EC50 (HIV-1 N119 (Y181C)) | Selectivity Index (SI = CC50/EC50) N119 (HIV-1 N119 (Y181C)) | EC50 [6] | Selectivity Index (SI = CC50/EC50) A17 [6] | Selectivity Index (SI = CC50/EC50) MDR [2] | Selectivity Index (SI = CC50/EC50) AZTR [3] | Selectivity Index (SI = CC50/EC50) SAQR [5] |
| --- | --- | --- | --- | --- | --- | --- | --- | --- | --- | --- | --- | --- | --- | --- | --- |
| O=c1c2ccccc2sn1NS(=O)(=O)c1ccc([N+](=O)[O-])cc1 [Compound 8, 4-Nitro-N-(3-oxo-1,2-benzisothiazol-2(3H)-yl)benzenesulfonamide] | 9 ± 2 µM | > 11 | 6 ± 0.5 µM | 7 ± 0.7 µM | > 100 µM | 8 ± 1 µM | 15 ± 4 µM | > 7 | 7 ± 0.5 µM | > 14 | 11 ± 2 µM | > 9 | – | – | – |
| COc1ccc(S(=O)(=O)Nn2sc3ccccc3c2=O)cc1 [Compound 9, 4-Methoxy-N-(3-oxo-1,2-benzisothiazol-2(3H)-yl)benzenesulfonamide] | 6 ± 0.7 µM | 9 | 6 ± 0.7 µM | 5 ± 1 µM | 56 ± 0.1 µM | 7 ± 1 µM | 8 ± 2 µM | 7 | 6 ± 0.5 µM | 9 | 8 ± 1 µM | 7 | 9 | 11 | 8 |
| O=c1c2ccccc2sn1NS(=O)(=O)c1ccccc1F [Compound 10, 2-Fluoro-N-(3-oxo-1,2-benzisothiazol-2(3H)-yl)benzenesulfonamide] | 5 ± 2 µM | > 20 | 5 ± 0.5 µM | 6 ± 0.5 µM | > 100 µM | 7 ± 1 µM | 7 ± 0.8 µM | > 14 | 6 ± 3 µM | > 16 | 7 ± 0.7 µM | > 14 | > 20 | > 16 | > 14 |
| O=c1c2ccccc2sn1NS(=O)(=O)c1ccc(F)cc1 [Compound 11, 4-Fluoro-N-(3-oxo-1,2-benzisothiazol-2(3H)-yl)benzenesulfonamide] | 2 ± 0.7 µM | 25 | 6 ± 0.5 µM | 5 ± 0.5 µM | 50 ± 4 µM | 4 ± 0.7 µM | 5 ± 2 µM | 10 | 5 ± 0.5 µM | 10 | 5 ± 0.2 µM | 10 | 8 | 10 | 12 |
| O=c1c2ccccc2sn1NS(=O)(=O)c1ccccc1Cl [Compound 12, 2-Chloro-N-(3-oxo-1,2-benzisothiazol-2(3H)-yl)benzenesulfonamide] | 9 ± 0.5 µM | 8 | 7 ± 1 µM | 9 ± 0.7 µM | 73 ± 3 µM | 9 ± 2 µM | 13 ± 2 µM | 5 | 7 ± 0.7 µM | 10 | 11 ± 2 µM | 6 | 7 | 8 | 8 |
| O=c1c2ccccc2sn1NS(=O)(=O)c1ccc(Cl)cc1 [Compound 13, 4-Chloro-N-(3-oxo-1,2-benzisothiazol-2(3H)-yl)benzenesulfonamide] | 3 ± 1 µM | 10 | 7 ± 2 µM | 7 ± 1 µM | 33 ± 0.1 µM | 8 ± 2 µM | 11 ± 4 µM | 3 | 6 ± 0.9 µM | 5 | 8 ± 1.4 µM | 4 | 4 | 4 | 4 |
| O=c1c2ccccc2sn1NS(=O)(=O)c1cccc(Cl)c1 [Compound 14, 3-Chloro-N-(3-oxo-1,2-benzisothiazol-2(3H)-yl)benzenesulfonamide] | 7 ± 1 µM | – | 6 ± 1 µM | 6 ± 0.7 µM | 40 ± 2 µM | 4 ± 0.7 µM | 5 ± 1 µM | 8 | 7 ± 1.4 µM | 5 | 3 ± 1 µM | – | 6 | 6 | 10 |
| O=c1c2ccccc2sn1NS(=O)(=O)c1ccc(Cl)c(Cl)c1 [Compound 15, 3,4-Dichloro-N-(3-oxo-1,2-benzisothiazol-2(3H)-yl)benzenesulfonamide] | 8 ± 1.5 µM | 8 | 11 ± 3 µM | 6 ± 1 µM | 66 ± 3 µM | 8 ± 2 µM | 15 ± 4 µM | 4 | 7 ± 0.1 µM | 9 | 8 ± 2 µM | 8 | 6 | 11 | 8 |
| O=c1c2ccccc2sn1NS(=O)(=O)c1cc(Cl)cc(Cl)c1 [Compound 16, 3,5-Dichloro-N-(3-oxo-1,2-benzisothiazol-2(3H)-yl)benzenesulfonamide] | 10 ± 3 µM | 8 | 13 ± 2 µM | 8 ± 0.7 µM | 86 ± 1 µM | 12 ± 2 µM | 16 ± 5 µM | 5 | 7 ± 0.4 µM | 12 | 11 ± 2 µM | 7 | 6 | 10 | 7 |
| O=c1c2cc(Cl)ccc2sn1NS(=O)(=O)c1ccccc1Cl [Compound 18, 2-Chloro-N-(5-chloro-3-oxo-1,2-benzisothiazol-2(3H)-yl)benzenesulfonamide] | 7 ± 2 µM | > 14 | 16 ± 2 µM | 12 ± 2 µM | > 100 µM | 15 ± 3 µM | 16 ± 3 µM | > 6 | 14 ± 1 µM | > 5 | 20 ± 4 µM | > 5 | > 6 | > 8 | > 6 |
| O=c1c2ccccc2sn1N(S(=O)(=O)c1ccccc1)S(=O)(=O)c1ccccc1 [Compound 20, N-(3-oxo-1,2-benzisothiazol-2(3H)-yl)-N-(phenylsulfonyl)benzenesulfonamide] | 22 ± 1 µM | > 4 | 19 ± 1 µM | 20 ± 2 µM | > 100 µM | 25 ± 3 µM | 22 ± 3.5 µM | – | 23 ± 1 µM | – | 25 ± 2 µM | > 4 | > 5 | > 5 | > 4 |
| Cc1ccc(S(=O)(=O)N(n2sc3ccccc3c2=O)S(=O)(=O)c2ccc(C)cc2)cc1 [Compound 21, 4-Methyl-N-[(4-methylphenyl)sulfonyl]-N-(3-oxo-1,2-benzisothiazol-2(3H)-yl)benzenesulfonamide] | 70 µM | – | 63 µM | 70 µM | > 100 µM | 63 µM | 76 µM | – | 44 µM | – | 58 µM | – | – | – | – |
